Reference: patent publication US9108923B2, “Compounds, compositions, and methods for cancer therapy” (The Broad Institute, Inc., priority 2012, dated 2015)
Read-outs that look alike come from different tables or passages of the source.

How the values were obtained:
H1703 = test: ATP Assay (CellTiter-Glo), cellular ATP levels as surrogate for cell viability; type: cell-based, human; conditions: cellular ATP levels, 48 h, read-out: EC50 H1703
Method: (§1) ATP Assay. […] At that time, media was removed and replaced with a solution of CellTiter-Glo reagent (Promega) in PBS. After ten minutes, luminescence was read using an EnVision multilabel plate reader (Perkin-Elmer) and signal intensity was calculated relative to in-plate DMSO control wells.
(§2) We next sought to determine the performance of the synthetic analogs relative to PL in cells. […] As a second assay, effects of compound treatments on ATP levels, a surrogate for cell viability, were measured after 48 hours.
(§3) Assays were performed in 384-well plates on two human cancer cell lines, H1703 (lung) and HeLa (cervix).

HeLa = test: as above; type: cell-based, human; conditions: cellular ATP levels, 48 h, read-out: EC50 HeLa
Method: as §1, §2, §3

[1] = Homo sapiens, NCI-H1703, Table 2
[2] = Homo sapiens, NCI-H1703, Table 1

| Compound | EC50 (H1703; [1]) | EC50 (HeLa; Homo sapiens, HeLa, Table 2) | also measured |
| --- | --- | --- | --- |
| COc1cc(/C=C/C(=O)N2CCC=C(C#CC3(O)CCCCC3)C2=O)cc(OC)c1OC [compound 36] | 0.5 µM | 1.5 µM |  |
| COc1cc(/C=C/C(=O)N2CCC=C(C)C2=O)cc(OC)c1OC [compound 3, (E)-3-methyl-1-(3-(3,4,5-trimethoxyphenyl)prop-2-enoyl)-5,6-dihydropyridin-2(1H)-one] |  |  | EC50 (H1703; [2]): > 20 µM; EC50 (H1703; Table 2): > 20 µM; EC50 (HeLa; Homo sapiens, HeLa, Table 1): > 20 µM; EC50 (HeLa; Table 2): > 20 µM |
| O=C1C=CCCN1C(=O)c1cc2ccccc2s1 [compound 28] |  |  | EC50 (H1703; Table 2): 18 µM; EC50 (HeLa; Table 2): > 20 µM |
| COc1cc(/C=C/C(=O)N2CCC=C(C#Cc3ccccc3Cl)C2=O)cc(OC)c1OC [compound 35] | 0.6 µM | 1.5 µM |  |
| COc1cc(/C=C/C(=O)N2C(=O)C=CCC2C2CCCC2)cc(OC)c1OC (stereo not shown) [compound 12] | 6 µM | 6 µM |  |
| COc1cc(/C=C/C(=O)N2CCC=CC2=O)cc(OC)c1OCCN(C)C [compound 32] | 1.5 µM | 4 µM |  |
| COc1cc(/C=C/C(=O)N2CCC=C(C#CC(C)(C)C)C2=O)cc(OC)c1OC [compound 43] | 0.7 µM | 1.2 µM |  |
| COc1cc(/C=C/C(=O)N2CCC=C(c3ccc(F)cc3)C2=O)cc(OC)c1OC [compound 20] | > 20 µM | > 20 µM |  |
| COc1cc(/C=C/C(=O)N2CCC=C(C#CC3=CCCCC3)C2=O)cc(OC)c1OC [compound 45] | 3 µM | 5 µM |  |
| COc1cc(/C=C/C(=O)N2C(=O)C=CCC2c2ccccc2)cc(OC)c1OC (stereo not shown) [compound 50] |  |  | EC50 (H1703; Table 2): 3.6 µM; EC50 (HeLa; Table 2): 6.8 µM |
| O=C1C=CCCN1S(=O)(=O)/C=C/c1ccccc1 [compound 16] |  |  | EC50 (H1703; [2]): 2.7 µM; EC50 (HeLa; Homo sapiens, HeLa, Table 1): 4.1 µM |
| COc1cc(/C=C/C(=O)N2C(=O)C=CCC2C2CCCCC2)cc(OC)c1OC (stereo not shown) [compound 11] | 6 µM | 7 µM |  |
| C/C(=C\C(=O)N1CCC=CC1=O)c1ccccc1 [compound 9] |  |  | EC50 (H1703; [2]): 14 µM; EC50 (HeLa; Homo sapiens, HeLa, Table 1): > 20 µM |
| COc1cc(/C=C/C(=O)N2CCC(C)=C(C)C2=O)cc(OC)c1OC [compound 47] | > 20 µM | > 20 µM |  |
| COc1cc(/C=C/C(=O)N2CCC=C(I)C2=O)cc(OC)c1OC [compound 55] | 3 µM | > 20 µM |  |
| C=C(C)C(=O)N1CCC=CC1=O [compound 73] | 4.7 µM | 19 µM |  |
| COc1cc(CCC(=O)N2CCCCC2=O)cc(OC)c1OC [compound 65] |  | > 20 µM |  |
| COc1cc(/C=C/C(=O)N2CCC(C)=CC2=O)cc(OC)c1OC [compound 26] |  |  | EC50 (H1703; Table 2): > 20 µM; EC50 (HeLa; Table 2): > 20 µM |
| COc1cc(/C=C/C(=O)N2CCC=CC2=O)cc(OC)c1OCCN(C)CCOc1c(OC)cc(/C=C/C(=O)N2CCC=CC2=O)cc1OC [compound 67] | 0.2 µM | 0.5 µM |  |
| COc1cc(/C=C/C(=O)N2CCC=C(C#CC3CCCC3)C2=O)cc(OC)c1OC [compound 17] | 1 µM | 3 µM |  |
| O=C1C=CCCN1C(=O)/C=C/c1ccccc1Cl [compound 13] |  |  | EC50 (H1703; [2]): 4 µM; EC50 (HeLa; Homo sapiens, HeLa, Table 1): 7.5 µM |
| COc1ccc(C2CC=CC(=O)N2C(=O)/C=C/c2cc(OC)c(OC)c(OC)c2)cc1 (stereo not shown) [compound 9] | 4 µM | 7 µM |  |
| COc1cc(/C=C/C(=O)N2CCC=C(C#CCc3ccccc3)C2=O)cc(OC)c1OC [compound 63] | 2 µM | 10 µM |  |

| Compound | EC50 (H1703; [1]) | EC50 (HeLa; Homo sapiens, HeLa, Table 2) | also measured |
| --- | --- | --- | --- |
| COc1cc(/C=C/C(=O)N2CCC=C(c3ccc(Oc4ccccc4)cc3)C2=O)cc(OC)c1OC [compound 71] | > 20 µM | > 20 µM |  |
| COc1cc(/C=C/C(=O)N2C(=O)C=CCC2c2cccs2)cc(OC)c1OC (stereo not shown) [compound 10] | 2 µM | 4 µM |  |
| O=C1C=CCCN1C(=O)/C=C/c1cccc(Br)c1 [compound 62] | 5 µM | 7 µM |  |
| COc1cc(/C=C/C(=O)N2CCC=C(C#Cc3ccsc3)C2=O)cc(OC)c1OC [compound 69] | 1 µM | 2 µM |  |
| COc1cc(/C=C(\C)C(=O)N2CCC=CC2=O)cc(OC)c1OC [compound 37] | 4 µM | 18 µM |  |
| COC1=CC(=O)N(C(=O)/C=C/c2cc(OC)c(OC)c(OC)c2)C1 [compound 19] |  | > 20 µM |  |
| O=Cc1ccc(/C=C/C(=O)N2CCC=CC2=O)cc1 [compound 14] | 5 µM | 8 µM |  |
| COC(=O)CSC1CCN(C(=O)/C=C/c2cc(OC)c(OC)c(OC)c2)C(=O)C1 (stereo not shown) [Cpd. 7] |  |  | EC50 (H1703; [2]): 7.9 µM; EC50 (HeLa; Homo sapiens, HeLa, Table 1): > 20 µM |
| O=C(C#Cc1ccccc1)N1CCC=CC1=O [compound 75] | 0.91 µM | 4.1 µM |  |
| COc1cc(/C=C/C(=O)N2CCC=C(c3ccc(C)cc3)C2=O)cc(OC)c1OC [compound 66] |  | > 20 µM |  |
| O=C1C=CCCN1C(=O)/C=C/c1cccc(C(F)(F)F)c1 [compound 18] | 5 µM | 6 µM |  |
| COc1cc(/C=C/C(=O)N2CCC(C)=CC2=O)cc(OC)c1OC [compound 8] |  |  | EC50 (H1703; [2]): > 20 µM; EC50 (HeLa; Homo sapiens, HeLa, Table 1): > 20 µM |
| CCCCC#CC1=CCCN(C(=O)/C=C/c2cc(OC)c(OC)c(OC)c2)C1=O [compound 31] | 0.9 µM | 2 µM |  |
| C/C(=C\C(=O)N1CCC=CC1=O)c1ccccc1 [compound 27] |  |  | EC50 (H1703; Table 2): 14 µM; EC50 (HeLa; Table 2): > 20 µM |
| COc1cc(/C=C/C(=O)N2CCC=C(C#Cc3cccc(Cl)c3)C2=O)cc(OC)c1OC [compound 40] | 1.5 µM | 5 µM |  |
| COc1cc(/C=C/C(=O)N2CCC=C(C#CC3CCCCC3)C2=O)cc(OC)c1OC [compound 59] | 1.5 µM | 3 µM |  |
| COc1cc(/C=C/C(=O)N2CCC=C(c3cccnc3)C2=O)cc(OC)c1OC [compound 24] | > 20 µM | > 20 µM |  |
| O=C1C=CCCN1C(=O)c1cc2ccccc2s1 [compound 10] |  |  | EC50 (H1703; [2]): 18 µM; EC50 (HeLa; Homo sapiens, HeLa, Table 1): > 20 µM |
| COc1cc(/C=C/C(=O)N2CCC=C(C3CCCCC3)C2=O)cc(OC)c1OC [compound 44] | > 20 µM | > 20 µM |  |
| COc1cc(/C=C(\F)C(=O)N2CCC=CC2=O)cc(OC)c1OC [compound 58] | 8 µM | 11 µM |  |
| COc1cc(/C=C/C(=O)N2C(=O)C=CCC2c2ccccc2)cc(OC)c1OC (stereo not shown) [compound 14] |  |  | EC50 (H1703; [2]): 3.6 µM; EC50 (HeLa; Homo sapiens, HeLa, Table 1): 6.8 µM |
| O=C1C=CCCN1C(=O)c1cc2ccccc2oc1=O [compound 34] | 5 µM | 15 µM |  |
| COc1cc2c(c(OC)c1OC)CCC(C(=O)N1CCC=CC1=O)=C2 [compound 11] |  |  | EC50 (H1703; [2]): 14 µM; EC50 (HeLa; Homo sapiens, HeLa, Table 1): > 20 µM |

| Compound | EC50 (H1703; [1]) | EC50 (HeLa; Homo sapiens, HeLa, Table 2) | also measured |
| --- | --- | --- | --- |
| O=C1C=CCCN1C(=O)/C=C/C(=O)N1CCC=CC1=O [compound 74] | 2.3 µM | 11 µM |  |
| O=C1C=CCCN1C(=O)/C(F)=C/c1ccccc1 [compound 70] | 10 µM | > 20 µM |  |
| O=C1C=CCCN1C(=O)/C=C/c1ccc(/C=C/C(=O)N2CCC=CC2=O)cc1 [compound 78] | 0.3 µM | 0.78 µM |  |
| O=C1C=CCCN1C(=O)c1ccc2ccccc2c1 [compound 22] | 9 µM | 20 µM |  |
| COc1cc(/C=C/C(=O)N2CC(c3cccs3)C=CC2=O)cc(OC)c1OC (stereo not shown) [compound 15] |  |  | EC50 (H1703; [2]): 6.5 µM; EC50 (HeLa; Homo sapiens, HeLa, Table 1): 15 µM |
| CC1=C(C(=O)N2CCC=CC2=O)Cc2ccccc21 [compound 42] | 12 µM | > 20 µM |  |
| C=C(C)C(=O)NC(=O)/C=C/C [Cpd. 76, (E)-N-methacryloylbut-2-enamide] | 8 µM | > 20 µM |  |
| O=C1C=CCCN1C(=O)CCC(=O)N1CCC=CC1=O [compound 77] | 5.5 µM | 15 µM |  |
| COc1cc(/C=C/C(=O)N2CCC=C(C#Cc3ccccc3)C2=O)cc(OC)c1OC [compound 61] | 0.5 µM | 1.5 µM |  |
| COc1cc(/C=C/C(=O)N2CCC=C(C#Cc3ccc(OC(F)(F)F)cc3)C2=O)cc(OC)c1OC [compound 48] | 0.7 µM | 3 µM |  |
| COc1cc(/C=C/C(=O)N2CCC=C(C#Cc3ccc(F)cc3)C2=O)cc(OC)c1OC [compound 68] | 0.4 µM | 0.9 µM |  |
| COc1cc(/C=C/C(=O)N2CC(c3cccs3)C=CC2=O)cc(OC)c1OC (stereo not shown) [compound 51] |  |  | EC50 (H1703; Table 2): 6.5 µM; EC50 (HeLa; Table 2): 15 µM |
| COc1cc(/C=C/C(=O)N2C(=O)C=CCC2c2cccnc2)cc(OC)c1OC (stereo not shown) [compound 8] | 3 µM | 6 µM |  |
| COc1cc(/C=C/C(=O)N2CCC=C(c3ccccc3)C2=O)cc(OC)c1OC [compound 18] |  |  | EC50 (H1703; [2]): > 20 µM; EC50 (HeLa; Homo sapiens, HeLa, Table 1): > 20 µM |
| O=C1C=CCCN1C(=O)c1cc2ccccc2o1 [compound 15] | 10 µM | 20 µM |  |
| COc1cc(/C=C/C(=O)N2CCC=CC2=O)c(F)c(OC)c1OC [compound 23] | 0.8 µM | 3 µM |  |
| COc1cc(/C=C/C(=O)N2CC=CCC2=O)cc(OC)c1OC [compound 46] | 13 µM | > 20 µM |  |
| COc1cc(/C=C/C(=O)N2CCC=C(c3ccccc3)C2=O)cc(OC)c1OC [compound 54] |  |  | EC50 (H1703; Table 2): > 20 µM; EC50 (HeLa; Table 2): > 20 µM |
| COc1cc(/C=C/C(=O)N2CCC=CC2=O)cc(OC)c1OCCN(CCOc1c(OC)cc(/C=C/C(=O)N2CCC=CC2=O)cc1OC)CCOc1c(OC)cc(/C=C/C(=O)N2CCC=CC2=O)cc1OC [compound 41] | 0.1 µM | 0.3 µM |  |
| O=C1C=CCCN1C(=O)/C=C/c1ccccc1Cl [compound 49] |  |  | EC50 (H1703; Table 2): 4 µM; EC50 (HeLa; Table 2): 7.5 µM |
| COc1cc(/C=C/C(=O)N2C(=O)C=CCC2c2ccsc2)cc(OC)c1OC (stereo not shown) [Cpd. 7] | 2 µM | 2 µM |  |
